How the values were obtained:
Experiment in all cases: relative viability (nuclei count vs DMSO), 5 days (fraction); higher = more cells survive
201T = system: 201T
Summary of the method: (§1)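 The day after seeding in 1536-well plates, lung cancer cell lines were treated by pin tool with a single drug, or with a fixed anchor-drug dose together with five library-drug doses (not always all listed) in √10 steps. After 5 days, a combined fix-and-stain solution (final 0.05% Triton X-100, 1% formaldehyde, 1 ug/ml Hoechst) was added. Nuclei counted on 4× images gave relative viability as treated counts over vehicle counts, reported as the median of duplicate plates.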

ChaGo-K-1 = system: ChaGo-K-1
Summary of the method: as §1

NCI-H2126 = system: NCI-H2126
Summary of the method: as §1

RERF-LC-KJ = system: RERF-LC-KJ
Summary of the method: as §1

EPLC-272H = system: EPLC-272H
Summary of the method: as §1

HCC-78 = system: HCC-78
Summary of the method: as §1

NCI-H1915 = system: NCI-H1915
Summary of the method: as §1

NCI-H520 = system: NCI-H520
Summary of the method: as §1

COR-L 105 = system: COR-L 105
Summary of the method: as §1

NCI-H1666 = system: NCI-H1666
Summary of the method: as §1

NCI-H23 = system: NCI-H23
Summary of the method: as §1

NCI-H661 = system: NCI-H661
Summary of the method: as §1

PC-14 = system: PC-14
Summary of the method: as §1

NCI-H2405 = system: NCI-H2405
Summary of the method: as §1

NCI-H650 = system: NCI-H650
Summary of the method: as §1

NCI-H647 = system: NCI-H647
Summary of the method: as §1

NCI-H2087 = system: NCI-H2087
Summary of the method: as §1

H3255 = system: H3255
Summary of the method: as §1

NCI-H322M = system: NCI-H322M
Summary of the method: as §1

HCC-827 = system: HCC-827
Summary of the method: as §1

NCI-H2347 = system: NCI-H2347
Summary of the method: as §1

NCI-H522 = system: NCI-H522
Summary of the method: as §1

LCLC-97TM1 = system: LCLC-97TM1
Summary of the method: as §1

LC-2-ad = system: LC-2-ad
Summary of the method: as §1

Q: What does the source list for `Clc1ccc(Nc2nnc(Cc3ccncc3)c3ccccc23)cc1` [Vatalanib] + N=C(N)NC(=N)NCCc1ccccc1 [Phenformin] (partner 250 µM)?
A: relative viability (201T; first compound 0.04 µM): 0.436; relative viability (201T; first compound 0.1265 µM): 0.451; relative viability (201T; first compound 0.4 µM): 0.437; relative viability (201T; first compound 1.265 µM): 0.405; relative viability (201T; first compound 4 µM): 0.431; relative viability (ChaGo-K-1; first compound 0.04 µM): 0.453; relative viability (ChaGo-K-1; first compound 0.1265 µM): 0.407; relative viability (ChaGo-K-1; first compound 0.4 µM): 0.522; relative viability (ChaGo-K-1; first compound 1.265 µM): 0.432; relative viability (ChaGo-K-1; first compound 4 µM): 0.431; relative viability (NCI-H2126; first compound 0.04 µM): 0.508; relative viability (NCI-H2126; first compound 0.1265 µM): 0.521; relative viability (NCI-H2126; first compound 0.4 µM): 0.453; relative viability (NCI-H2126; first compound 1.265 µM): 0.487; relative viability (NCI-H2126; first compound 4 µM): 0.546; relative viability (RERF-LC-KJ; first compound 0.04 µM): 0.479; relative viability (RERF-LC-KJ; first compound 0.1265 µM): 0.41; relative viability (RERF-LC-KJ; first compound 0.4 µM): 0.443; relative viability (RERF-LC-KJ; first compound 1.265 µM): 0.341; relative viability (RERF-LC-KJ; first compound 4 µM): 0.425; relative viability (EPLC-272H; first compound 0.04 µM): 0.324; relative viability (EPLC-272H; first compound 0.1265 µM): 0.323; relative viability (EPLC-272H; first compound 0.4 µM): 0.275; relative viability (EPLC-272H; first compound 1.265 µM): 0.349; relative viability (EPLC-272H; first compound 4 µM): 0.348; relative viability (HCC-78; first compound 0.04 µM): 0.589; relative viability (HCC-78; first compound 0.1265 µM): 0.613; relative viability (HCC-78; first compound 0.4 µM): 0.631; relative viability (HCC-78; first compound 1.265 µM): 0.649; relative viability (HCC-78; first compound 4 µM): 0.575; relative viability (NCI-H1915; first compound 0.04 µM): 0.374; relative viability (NCI-H1915; first compound 0.1265 µM): 0.345; relative viability (NCI-H1915; first compound 0.4 µM): 0.399; relative viability (NCI-H1915; first compound 1.265 µM): 0.38; relative viability (NCI-H1915; first compound 4 µM): 0.371; relative viability (NCI-H520; first compound 0.04 µM): 0.722; relative viability (NCI-H520; first compound 0.1265 µM): 0.412; relative viability (NCI-H520; first compound 0.4 µM): 0.83; relative viability (NCI-H520; first compound 1.265 µM): 0.493; relative viability (NCI-H520; first compound 4 µM): 0.479; relative viability (COR-L 105; first compound 0.04 µM): 0.469; relative viability (COR-L 105; first compound 0.1265 µM): 0.37; relative viability (COR-L 105; first compound 0.4 µM): 0.475; relative viability (COR-L 105; first compound 1.265 µM): 0.45; relative viability (COR-L 105; first compound 4 µM): 0.423; relative viability (NCI-H1666; first compound 0.04 µM): 0.563; relative viability (NCI-H1666; first compound 0.1265 µM): 0.566; relative viability (NCI-H1666; first compound 0.4 µM): 0.449; relative viability (NCI-H1666; first compound 1.265 µM): 0.519; relative viability (NCI-H1666; first compound 4 µM): 0.559; relative viability (NCI-H23; first compound 0.04 µM): 0.742; relative viability (NCI-H23; first compound 0.1265 µM): 0.719; relative viability (NCI-H23; first compound 0.4 µM): 0.78; relative viability (NCI-H23; first compound 1.265 µM): 0.714; relative viability (NCI-H23; first compound 4 µM): 0.748; relative viability (NCI-H661; first compound 0.04 µM): 0.32; relative viability (NCI-H661; first compound 0.1265 µM): 0.248; relative viability (NCI-H661; first compound 0.4 µM): 0.304; relative viability (NCI-H661; first compound 1.265 µM): 0.267; relative viability (NCI-H661; first compound 4 µM): 0.286; relative viability (PC-14; first compound 0.04 µM): 0.552; relative viability (PC-14; first compound 0.1265 µM): 0.466; relative viability (PC-14; first compound 1.265 µM): 0.458; relative viability (PC-14; first compound 4 µM): 0.541; relative viability (NCI-H2405; first compound 0.04 µM): 0.425; relative viability (NCI-H2405; first compound 0.1265 µM): 0.376; relative viability (NCI-H2405; first compound 1.265 µM): 0.391; relative viability (NCI-H2405; first compound 4 µM): 0.368; relative viability (NCI-H650; first compound 0.04 µM): 0.473; relative viability (NCI-H650; first compound 0.1265 µM): 0.427; relative viability (NCI-H650; first compound 1.265 µM): 0.446; relative viability (NCI-H650; first compound 4 µM): 0.439; relative viability (NCI-H647; first compound 0.04 µM): 0.466; relative viability (NCI-H647; first compound 0.1265 µM): 0.562; relative viability (NCI-H647; first compound 0.4 µM): 0.521; relative viability (NCI-H647; first compound 1.265 µM): 0.401; relative viability (NCI-H647; first compound 4 µM): 0.54; relative viability (NCI-H2087; first compound 0.04 µM): 0.484; relative viability (NCI-H2087; first compound 0.1265 µM): 0.404; relative viability (NCI-H2087; first compound 0.4 µM): 0.428; relative viability (NCI-H2087; first compound 1.265 µM): 0.461; relative viability (NCI-H2087; first compound 4 µM): 0.541; relative viability (H3255; first compound 0.04 µM): 0.397; relative viability (H3255; first compound 0.1265 µM): 0.392; relative viability (H3255; first compound 0.4 µM): 0.316; relative viability (H3255; first compound 1.265 µM): 0.368; relative viability (H3255; first compound 4 µM): 0.368; relative viability (NCI-H322M; first compound 0.04 µM): 0.755; relative viability (NCI-H322M; first compound 0.1265 µM): 0.789; relative viability (NCI-H322M; first compound 0.4 µM): 0.826; relative viability (NCI-H322M; first compound 1.265 µM): 0.685; relative viability (NCI-H322M; first compound 4 µM): 0.759; relative viability (HCC-827; first compound 0.04 µM): 0.413; relative viability (HCC-827; first compound 0.1265 µM): 0.418; relative viability (HCC-827; first compound 0.4 µM): 0.304; relative viability (HCC-827; first compound 1.265 µM): 0.425; relative viability (HCC-827; first compound 4 µM): 0.378; relative viability (NCI-H2347; first compound 0.04 µM): 0.323; relative viability (NCI-H2347; first compound 0.1265 µM): 0.426; relative viability (NCI-H2347; first compound 0.4 µM): 0.401; relative viability (NCI-H2347; first compound 1.265 µM): 0.266; relative viability (NCI-H2347; first compound 4 µM): 0.389; relative viability (NCI-H522; first compound 0.04 µM): 0.699; relative viability (NCI-H522; first compound 0.1265 µM): 0.531; relative viability (NCI-H522; first compound 0.4 µM): 0.673; relative viability (NCI-H522; first compound 1.265 µM): 0.623; relative viability (NCI-H522; first compound 4 µM): 0.597; relative viability (LCLC-97TM1; first compound 0.04 µM): 0.417; relative viability (LCLC-97TM1; first compound 0.1265 µM): 0.388; relative viability (LCLC-97TM1; first compound 0.4 µM): 0.46; relative viability (LCLC-97TM1; first compound 1.265 µM): 0.407; relative viability (LCLC-97TM1; first compound 4 µM): 0.396; relative viability (LC-2-ad; first compound 0.04 µM): 0.652; relative viability (LC-2-ad; first compound 0.1265 µM): 0.553; relative viability (LC-2-ad; first compound 1.265 µM): 0.517; relative viability (LC-2-ad; first compound 4 µM): 0.55

Source: the supplement of paper PMC10307832
